Source: US11135219B2, “Methods of treating or preventing Zika virus infection” (priority 2017, dated 2021)

Assays:
[1] = system: Zika virus strain PRVABC59; experiment: Inhibition assay: PRVABC59 ZIKV growth in Vero cells (plaque assay, RT-qPCR); format: cell-based
Method: (§1) Vero cells were seeded in a 96-well plate with the density of 6000 cells per well. In the initial screening study, the compound (1 μM)-virus (0.1 PFU/cell) mixture in virus growth medium (VGM) [DMEM containing 2% FBS, PS, 20 mM hydroxyethyl piperazine ethane sulfonic acid (HEPES), 1 mM sodium pyruvate, and non-essential amino acids] was added to the cells and incubated for 72 h. In a separate experiment conducted using 12-well plates, the cells were first infected with the virus at 0.1 PFU/cell and following adsorption, the cells were washed twice in PBS and incubated in VGM containing 1 μM concentrations of the drugs. The cell culture media were collected at 72-96 h post-infection and assayed for infectious virus by plaque assay and viral genome copies by quantitative RT-PCR (RT-qPCR). In all subsequent studies, cells in 12-well plates were infected with ZIKV at MOI of 0.1 PFU/cell and following virus adsorption for 1 h at 37° C., VGM containing various concentrations TPB was added to the cells and incubated as above. Clarified supernatants from the infected cells were then used to determine infectious virus or genome copies as above.
(§2) ZIKV viral RNA was detected using RT-qPCR on a C100 Thermal Cycler and the CFX96 Real-Time system (Bio-Rad). Viral RNA (vRNA) was extracted from culture supernatant using a QlAamp Viral RNA Mini kit (Qiagen) and TaqMan Fast Virus 1-Step Master Mix (Life technologies). ZIKV primers and probe (ZIKF: CCGCTGCCCAACACAAG (SEQ ID NO:1); ZIK-R:[…] (SEQ ID NO:2); PCR Probe: ZIK-P: […] (SEQ ID NO:3)) were used for quantitative RT-PCR (RT-qPCR) with the following parameters: 50° C. 30 min, 95° C. 5 min, (95° C. 30 S, 58° C. 1 min)×40 cycles. RNA standard concentrations were determined based on the back calculation with OD values and molecular weights and were generated through serial dilution with R^2>0.95.

[2] = system: Zika virus strain MR766; experiment: Inhibition of MR766 virus growth by TPB; format: cell-based; settings: μM range TPB concentrations tested
Method: as §1

[3] = system: PRVABC59 virus; experiment: PRVABC59 virus growth in HTR-8 cells in the presence of TPB; format: cell-based, Zika virus; settings: human trophoblast cell line HTR-8
[4] = system: PRVABC59 virus; experiment: PRVABC59 virus growth in NTERRA cells in the presence of TPB; format: cell-based, Zika virus; settings: human testicular cell line NTERRA
[5] = ATP-based cell viability assay (CellTiter-Glo); settings: African green monkey (Cercopithecus aethiops), Vero cells, four days, read-out: CC50 (cellular cytotoxicity 50)
Method: A modified ATP based cytopathic effect (CPE) assay was used for this study based on the CPE method for anti-DENV drug development described elsewhere (see, e.g., Che et al., 2009 Int. J. Clin. Exp. Med. 2:363-373). Vero cells (approximately 30,000 per well) were seeded in a black 96-well plate for 24 hours before the experiment. Cell monolayers were treated with various concentrations of the drugs for 4 days at 37° C. The ATP concentration was measured following manufacturer's recommendations using CellTiter-Glo kit from Promega (Madison, Wis.). Luminescence was recorded using a Veritas Microplate Luminometer at 420 nm. The 50% cytotoxic concentration (CC50) was calculated by a non-linear regression analysis of the dose-response curves.

[6] = Pharmacokinetic study of TPB in mice (plasma LC-MS/MS); format: in vivo, Balb/C mice; settings: 10-12 h post-injection, intraperitoneal, 5 mg/kg or 25 mg/kg
Method: For PK studies, groups of Balb/C mice (n=3) were injected intraperitoneally with doses of 5 mg/kg or 25 mg/kg of body weight of TPB in 5% dextrose, plasma was collected from the animals at various times post-injection and stored at −80° C. until analysis by LC-MS/MS for TPB concentrations. Plasma drug levels were subjected to noncompartmental analysis (WinNonlin ver. 6.4 Certera Inc., Princeton, N.J.). The predicted steady-state levels>500 ng/ml were estimated using a twelve h dosing of 25 mg/kg dose of the compound in mice.
TPB was dissolved in DMSO at 1 mg/ml. Working standard solutions were then prepared in 50% methanol in water from the stock solution. Standards (an eight-point calibration curve) and quality controls (at three levels) were prepared by spiking the working standard solutions to blank mouse plasma. One hundred μl aliquot of plasma was mixed with 25 μl of internal standard spiking solution (rilpivirine 1000 ng/ml in 50% acetonitrile in water), 1.5 ml ethyl acetate was added and vortexed vigorously for 15 min. […]
An Agilent 1200 HPLC system (Agilent Technologies, CA, USA) coupled with AB Sciex API 3200 Q Trap with an electrospray ionization source (Applied Biosystems, Foster City, Calif., USA) was used. The mass transitions m/z 541.2→330.2 and 541.2→212.2 for analyte and m/z 367.2→195.2 for internal standard were monitored. […]

[7] = in vivo; format: in vivo, Balb/C mice; settings: Balb/C, mouse, in vivo, ip, 25 mg/kg
Method: as §2
(§3) Balb/C mice were obtained from the Jackson Laboratory (Bar Harbor, Me., USA). After acclimatization for four days, groups of animals (n=6 per group) were injected intraperitoneally with 25 mg/kg body weight dose of TPB diluted in saline or saline alone (no drug control). Following three injections at 12 h intervals, 500 PFU of PRVABC59 virus diluted in PBS was inoculated into each mouse by the subcutaneous (SC) route. Blood was collected by retro-orbital bleeding under anesthesia at days 2, 3, 4, 5, and 6 post-infection. Viral genome copies in the plasma were determined by RT-qPCR.

[8] = system: PRVABC59 virus; experiment: in vivo; format: in vivo, Balb/C mice
Method: as §2, §3

[9] = system: Viral E protein; experiment: Western blot analysis of E protein expression in virus-infected cells; format: cell-based, Zika virus
Method: FIGS. 3A-3C show validation of the antiviral effect of TPB in the μM range. (FIG. 3A) Cells infected with PRVABC59 virus were incubated in the presence of various concentrations of TPB for 96 hours. Culture supernatants were titrated for viral genome copies (FIG. 3A) and infectious virus (FIG. 3B). Data are from three independent experiments with error bars showing±SEM. Statistical analysis was performed using unpaired two-tailed Student's t-test to determine significance of difference. […]. (FIG. 3C) Western blot analysis of E protein expression in virus-infected cells in the presence of various concentrations of TPB. Relative mobility of molecular mass markers are shown on the left.

[10] = system: ZIKV; settings: cited from earlier work
[11] = system: DENV; settings: cited from earlier work

Question: Which results are given for `O=C(NC(=S)Nc1ccc(N2CCN(C(=O)c3cccs3)CC2)cc1)c1sc2ccccc2c1Cl` [Compound 1, 3-chloro-N-[({4-[4-(2-thienylcarbonyl)-1-piperazinyl]phenyl}amino)carbonothioyl]-1-benzothiophene-2-carboxamide]?
Answer: Genome copy numbers in supernatants, reduction ([1]; 0.5 μM TPB, 96 hours): over 100 fold; Infectious virus in supernatants, reduction ([1]; 0.5 μM TPB, 96 hours): over 100 fold; Virus growth reduction ([1]; 1 μM TPB, 96 hours): over 1000 fold; ZIKV growth inhibition (genome copies in culture supernatants) vs vehicle-only treated cells ([1]; 1 μM compound, Vero cells, 72 hours): > 99%; Infectious virus yield inhibition ([1]; 1 μM compound, Vero cells, 96 hours): at least 1000 fold; ZIKV yield inhibition, side-by-side comparison ([1]; 1 μM, Vero cells, PRVABC59, 96 hours post-infection): over 1000 fold; Selectivity index 50 (SI50, CC50/IC50) ([1]; Vero cells): 206; IC50 ([1]; Zika virus, Vero, 96 h, Vero cells, PRVABC59, 96 hours post-infection, read-out: IC50 (infectious virus yield, plaque assay)): 0.094 µM; MR766 virus growth inhibition [2]: sensitive to inhibition; PRVABC59 virus growth inhibition in HTR-8 [3]: inhibited the virus growth; PRVABC59 virus growth inhibition in NTERRA [4]: inhibited the virus growth; CC50 at 4 days [5]: 19.4 µM; TPB plasma level [6]: approximately 100 ng/ml; concentration at 2 days post-infection [7]: ~270 ng/mL; Viral RNA level in plasma, lower than vehicle group ([8]; day 4 post-infection, 25 mg/kg intraperitoneal, 500 PFU ZIKV): ~40 fold; ZIKV viremia ([8]; immunocompetent mice): reduced ZIKV viremia significantly; Viral E protein synthesis in infected cells ([9]; 0.5 μM TPB): significantly inhibited; Viral E protein synthesis in infected cells ([9]; higher concentrations than 0.5 μM TPB): undetectable

Question: With `CC[C@H](C)[C@H]1O[C@]2(CC[C@@H]1C)C[C@@H]1C[C@@H](C/C=C(\C)[C@@H](O[C@H]3C[C@H](OC)[C@@H](O[C@H]4C[C@H](OC)[C@@H](O)[C@H](C)O4)[C@H](C)O3)[C@@H](C)/C=C/C=C3\CO[C@@H]4[C@H](O)C(C)=C[C@@H](C(=O)O1)[C@]34O)O2` [IVM, Ivermectin] as the molecule, how does the “Inhibition of ZIKV infection” value ([10]; 10 μM) read?
Answer: strongly

Question: For `COc1c(C)c2c(c(O)c1C/C=C(\C)CCC(=O)O)C(=O)OC2` [MPA, Mycophenolic acid], which “Inhibition of infection of cells in vitro by ZIKV” value ([10]; 1 μM) is on record?
Answer: over 99%

Question: And the “DENV RNA replication” value [11]?
Answer: inhibit DENV RNA replication
